The source of these data is patent publication US20160367542A1, “NICOTINAMIDE DERIVATE IN THE TREATMENT OF ACUTE CORONARY SYNDROME” (GlaxoSmithKline LLC, priority 2012, published 2016).

Data set [1] deals with patients with acute coronary syndrome (non-ST elevation). Put plainly: Recurrent infarction, infarct size and cardiac function in subjects with myocardial infarction (Example 4 study). The data set is classed as in vivo, human. Here is the method: (§1) In a randomised, double-blind, placebo controlled study, patients (n=approximately 500) who were admitted to a hospital with the diagnosis of acute coronary syndrome (specifically with non-ST elevation EKG findings upon entry) were provided an oral dose of losmapimod (7.5 mg or 15 mg and thereafter followed by 7.5 mg every 12 hours) or placebo for a period of 3 months.

For data set [2], the system named is high sensitivity C-reactive protein. In words: Inflammatory biomarkers in the FDG-PET/CT study. The class given is in vivo, human. The following applies: 7.5 mg BID versus placebo; 95% CI −46, −5; p=0.023. Here is the method: The primary objective was to measure in-vivo macrophage activity, by fluorodeoxyglucose (FDG) positron emission tomography (PET)/computed tomography (CT) imaging, in carotid arteries and aorta following a 12-week treatment with losmapimod (7.5 mg once daily [QD] and 7.5 mg twice daily [BID]), in the setting of chronic statin therapy, as compared to placebo. Secondary objectives included safety and tolerability of 12 weeks of dosing with losmapimod (7.5 mg QD or 7.5 mg BID). Inflammatory biomarkers and the effect of losmapimod 7.5 mg QD vs 7.5 mg BID on in-vivo macrophage activity, as assessed by FDG-PET/CT imaging. Ninety-nine patients with vascular inflammation on statins were randomised to losmapimod 7.5 mg once daily (QD), twice daily (BID) or placebo for 84 days. Vascular inflammation was assessed by PET-CT imaging of the carotid arteries and aorta using ^18fluorodeoxyglucose (FDG); the artery with the highest average maximum tissue-to-background ratio (TBR) at baseline (TBR>1.6). 92% of the subjects were white, 86% male, the mean age was 63.8 years (SD 6.13). 72% were current or ex-smokers. […] All subjects were on a stable dose of statin for at least 3 months prior to the first dose and continued on this dose of statin throughout the study.

In data set [3] the test system is hypercholerolesteric patients. The following applies: Circulation. 2011;123:515-523; cited from earlier work.
A short description of the next data set: physchem. The class given is physicochemical. The source says: There is therefore a need for a liquid formulation of said compound that is suitable for this mode of administration which solves this technical problem.
The test system of a further data set is CRP and IL6 levels. Put plainly: Inflammatory markers in subjects with myocardial infarction (Example 4 study). The data set is classed as in vivo, human. The following applies: oral 7.5 mg or 15 mg then 7.5 mg every 12 hours; average 4.5 day initial hospital stay, setting of stent placement. As for the experimental part: as §1
Data set [4] relates to in-vivo macrophage activity in the carotid arteries and aorta of subjects with established atherosclerosis. In words: In-vivo macrophage activity study, FDG-PET/CT imaging. On the set-up: species or system human. The following applies: 84 days. An excerpt:
Macrophage activity and presence are critical features to the vulnerability of plaque in the vasculature. The pivotal nature of p38 MAPK in signaling stress, and its presence in macrophages can be monitored by labeling glucose (fluorodeoxyglucose), an otherwise key nutrient for macrophage activity, and observing its uptake in macrophages using […]. […] The primary objective was to measure in-vivo macrophage activity, by fluorodeoxyglucose (FDG) positron emission tomography (PET)/computed tomography (CT) imaging, in carotid arteries and aorta following a 12-week treatment with losmapimod (7.5 mg once daily [QD] and 7.5 mg twice daily [BID]), in the setting of chronic statin therapy, as compared to placebo. Secondary objectives included safety and tolerability of 12 weeks of dosing with losmapimod (7.5 mg QD or 7.5 mg BID). Inflammatory biomarkers and the effect of losmapimod 7.5 mg QD vs 7.5 mg BID on in-vivo macrophage activity, as assessed by FDG-PET/CT imaging. Ninety-nine patients with vascular inflammation on statins were randomised to losmapimod 7.5 mg once daily (QD), twice daily (BID) or placebo for 84 days. Vascular inflammation was assessed by PET-CT imaging of the carotid arteries and aorta using ^18fluorodeoxyglucose (FDG); the artery with the highest average maximum tissue-to-background ratio (TBR) at baseline (TBR>1.6). […]

≈ marks a conversion by molar mass, not a printed value. Bounds are passed on as bounds.

With `Cc1c(F)cc(C(=O)NC2CC2)cc1-c1ccc(C(=O)NCC(C)(C)C)cn1` [losmapimod, 6-(5-cyclopropylcarbamoyl-3-fluoro-2-methyl-phenyl)-N-(2,2-dimethylpropyl)-nicotinamide], the “size of the infarct by magnetic resonance image, lower versus placebo” value in data set [1] (MRI 4-5 days after the index infarct, smaller cohort n=approximately 90) is greater than 20%. Moreover, in data set [1] (after 12 weeks of treatment), the “BNP levels (surrogate for cardiac function), reduction” value is greater than 20%. Also, the “size of the index infarct by release of cardiac muscle enzymes” value in data set [1] (enzymes measured every 8 hours, treated versus placebo group) was “unchanged”. Further, the “three month MR imaging of cardiac function and dimensions” value in data set [1] (three months of treatment) was “improved function and smaller overall cardiac dimensions”. Also, the “number of recurrent myocardial infarctions (or episodes of ACS), lower with treatment compared to placebo” value in data set [1] (within the first few months beyond the index infarct, not statistically significant) was “over 15%”. In addition, in data set [2], the “high sensitivity C-reactive protein, reduction versus placebo” value is on record as −28%. For the same compound, the “nitric oxide mediated vasodilatation” value in data set [3] is “improves”. The compound further displayed a solubility in “physchem” of roughly 5 µg/mL (≈ 13 µM). In addition, in the data set with CRP and IL6 levels, the “CRP level, lower with treatment compared to placebo” value is greater than 50% and the “IL6 level, lower with treatment compared to placebo” value is recorded as greater than 50%. In data set [4] (7.5 mg BID, placebo −6.1%, p=0.002, exploratory analysis), the “proportion of active slices (TBR≧1.6), change from baseline” value is listed as −9.8%. Also, the “change from baseline to day 84 in average maximum TBR (primary end point)” value in data set [4] (losmapimod versus placebo, patients on statins) is reported as “not significantly different”.

As usually defined, the solubility is how much of the substance goes into solution per volume. A lower solubility goes with little dissolved substance.
